# Experimental data from patent US6573296B2, “Therapeutic quassinoid preparations with antineoplastic, antiviral, and herbistatic activity” (priority 1997, dated 2003).
# pEC50: −log10 of the molar value.
# Experiments:
# H8 = assay: soft agar disk diffusion zone of inhibition assay; type: cell-based, human; conditions: 25 ug/disk
# Excerpt: (§1) The following human tumors were used: Human adenosquamous lung tumor H-125 (7) and colon tumors H8, HCT-116, and CX-1 were used for in vitro testing only. Each human cell line was maintained in culture until plating was done. HCT-116, H8, and CX-1 were maintained in McCoy's media and heat inactivated fetal bovine serum (11% FBS). It was passaged (1:5 dilution) twice week following enzymatic dissociation using a trypsin/PBS-EDTA mixture. H-125 was maintained in CMRL/Fischer media (1:1) with 11% FBS. It was mechanically dissociated and passaged (3:10 dilution) weekly. For the plating assay, all cells were mechanically dispersed and diluted in the CMRL/Fischer. media mixture.
# CX-1 = assay: soft agar disk diffusion zone of inhibition assay; type: cell-based, human; conditions: 25 ug/disk
# Excerpt: as §1
# [1] = tested on: Crandall Feline Kidney cells (CFK cells), uninfected; assay: time for complete cell killing, uninfected cells
# [2] = tested on: porcine pseudorabies virus; conditions: rabbit kidney cells
# [3] = tested on: HIV infected human MOLT-4 cells; assay: differential killing of HIV infected cells; type: cell-based; conditions: FIGS. 8 and 9
# human rhinovirus-14 = assay: cytopathic effect of rhinovirus in HeLa cells; type: cell-based; conditions: HeLa cells (Wisconsin strain), visually observed
# Procedure: C. HeLa cells (Wisconsin strain, Berlin, Germany) were contacted with human rhinovirus-14. Infected cells (Wisconsin strain) were visually observed. […] HeLa cells were not killed by any compounds used. Cells of other HeLa lines (eg. ATCC CCL2) were killed. Glaucarubolone, simalikalactone D and chaparrinone were tested on cell killing and virus production by primary blood monocytes. All three drugs were tested at five concentrations (0, 10^−9, 10^−8, 10^−7, and 10^−6 M). Drugs were given at different times pre-infection, given at the time of infection, or were administered at different times post-infection.
# NADH oxidase [4] = assay: NADH oxidase activity of rat liver cell fractions; conditions: for pEC50: read-out: ED50, inhibition of NADH oxidase activity
# M17/Adr = conditions: multidrug resistant, p-glycoprotein expressing mammary tumor versus leukemia
# [5] = tested on: plasma membrane NADH oxidase (tNOX)
# NADH oxidase [6] = assay: NADH oxidase activity of CFK microsomes from uninfected cells; conditions: read-out: ED50, inhibition of NADH oxidase activity; Plasma membrane-free CFK microsomes (Golgi-enriched) from uninfected cells
# Tomato plants = assay: growth of plants in peat after treatment; type: in vivo
# Procedure: Tomato plants about 3.5 cm high at the time of treatment were grown in peat in a flat of 1.5 inch diameter compartments and were treated with either aqueous simalikalactone (solution QD-1) or aqueous glaucarubolone (solution QD-2) containing 0.1% Triton X-100. The final volume/plant was 10 μ1 for the aqueous solution and 200 µl of the aqueous solution containing Triton X-100. […] With the aqueous treatment, plants also were inhibited but not as markedly as with detergent.
# NADH oxidase [7] = assay: NADH oxidase activity of CFK microsomes from infected cells; conditions: Plasma membrane-free CFK microsomes (Golgi-enriched) from infected cells
# Sorghum (DeKalb 18) = assay: growth of plants in soil after foliar application; type: in vivo; conditions: twenty days after treatment, 10 μl of 1:1000/half pot; control plants 16 cm
# Procedure: To evaluate the growth phenotype of a set of plants, a 1 mg concentration of 100 Mm (solution QD-2). This solution was diluted serially with water with or without Triton X-100, ethanol or DMSO and used directly for measurement of effects on seed germination or applied using a microliter syringe to foliage to evaluate growth effects on plants.
# Sorghum (DeKalb 18) plants growing in soil were treated as for Arabadopsis thaliani above after 6 days of germination when the plants were about 5 cm high (as the leaf emerged from the coleoptile sheath). Growth was retarded. Twenty days after treatment, control plants were 16 cm high and treated plants were 12 cm high. The application rate was 10 µl of 1:1000/half pot=2.5×10^−3 oz/A.
compound,measurement,setting,value
"CC1=CC(=O)C(O)C2(C)C1CC1OC(=O)C(O)C3C(C)C(O)C4(O)OCC13C42 (stereo not drawn) [Glaucarubolone, glaucarubolone]",zone of inhibition H8,H8,650 ZONE UNITS
same,zone of inhibition CX-1,CX-1,100 ZONE UNITS
same,"Time for complete cell killing (>98%), Uninfected",[1]; 3 × 10^−4 M,120 h
same,"Time for complete cell killing (>98%), Uninfected",[1]; 3 × 10^−5 M,120 h
same,"Time for complete cell killing (>98%), Uninfected",[1]; 3 × 10^−6 M,144 h
same,"Time for complete cell killing (>98%), Uninfected",[1]; 3 × 10^−7 M,192 h
same,"Time for complete cell killing (>98%), Uninfected",[1]; 3 × 10^−8 M,>192 h
same,"Time for complete cell killing (>98%), Uninfected",[1]; 3 × 10^−9 M,>192 h
same,cytopathic effect on non-infected treated control cells,[2]; non-infected,no cytopathic affect
same,cytopathic effect of porcine pseudorabies virus,[2]; visually monitored,inhibited cytopathic effect
same,killing of HIV infected MOLT-4 cells compared to uninfected cells,[3],differentially killed at two log orders less
same,cytopathic effect of human rhinovirus-14,human rhinovirus-14,Cytopathic effect was delayed
same,"inhibition of NADH oxidation, in words","NADH oxidase [4]; isolated plasma membranes of liver cells, FIG. 10",inhibits NADH oxidation
same,pEC50,NADH oxidase [4]; Rat liver golgi apparatus,< 5.00
same,pEC50,NADH oxidase [4]; Rat liver microsomes,< 5.00
same,pEC50,NADH oxidase [4]; Rat liver plasma membrane,< 5.00
same,differential / selectivity for M17/Adr (Mam 17/Adr),M17/Adr,demonstrated selectivity
same,"inhibition of NADH oxidation, in words","[5]; HeLA (ATCC CCL2 strain), FIG. 10",inhibits NADH oxidation
same,effect of redox poise on inhibition of NADH oxidase activity,"[5]; HeLa cell plasma membranes, FIG. 12",affected little by redox poise
same,pEC50,NADH oxidase [6],< 5.00
same,"effect on tomato plants, in words","Tomato plants; 1:1000 and 1:10,000 dilutions in detergent solution, 30 days after treatment",still inhibited
same,"effect on tomato plants, in words",Tomato plants; 100 Mm diluted 1:100 in 0.1% Triton X-100,did not grow and eventually died
same,"ED50, inhibition of NADH oxidase activity",NADH oxidase [7],>10^−8 M
same,height of treated plants,Sorghum (DeKalb 18),12 cm
